# Assays:
# Experiment in all cases: Bliss excess, mean over the matrix (fraction); higher = more synergy
# [1] = test system: MDA-MB-175-VII (Breast Carcinoma)
# Summary of the method: (§1)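 Cell lines grown in DMEM/F12 or RPMI with 10% FBS were plated in 1536-well plates and held 24 hours at 37°C, 5% CO2 before 72 hours of exposure to two-drug dose matrices, with DMSO typically at 0.2%. CellTiter-Glo 2.0 luminescence gave viability, which was converted to inhibition. Vehicle wells were set to 0 and blank wells to 1. Combination Emax is the second-highest inhibition in the matrix, and Bliss excess is the observed combination effect minus the expected EA + EB − EA·EB, where EA and EB are the single-agent effects.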
# [2] = test system: KNS-62 (Squamous Cell Lung Carcinoma)
# Summary of the method: as §1
# [3] = test system: OVKATE (Ovarian Carcinoma)
# Summary of the method: as §1
# [4] = test system: MRK-nu-1 (Breast Carcinoma)
# Summary of the method: as §1
# [5] = test system: BC-1 (B-Cell Non-Hodgkin's Lymphoma)
# Summary of the method: as §1
# GCIY (Gastric Carcinoma) = test system: GCIY (Gastric Carcinoma)
# Summary of the method: as §1
# SK-MEL-24 (Melanoma) = test system: SK-MEL-24 (Melanoma)
# Summary of the method: as §1
# [6] = test system: NCI-H1648 (Lung Adenocarcinoma)
# Summary of the method: as §1
# [7] = test system: NCI-H2023 (Non-Small Cell Lung Carcinoma)
# Summary of the method: as §1
# [8] = test system: SBC-5 (Small Cell Lung Carcinoma)
# Summary of the method: as §1
# [9] = test system: SUP-HD1 (Hodgkin's Lymphoma)
# Summary of the method: as §1
# [10] = test system: HT-3 (Cervical Carcinoma)
# Summary of the method: as §1
# [11] = test system: NCI-H2170 (Squamous Cell Lung Carcinoma)
# Summary of the method: as §1
# [12] = test system: SNU-1 (Gastric Carcinoma)
# Summary of the method: as §1
# [13] = test system: HT-1197 (Bladder Carcinoma)
# Summary of the method: as §1
# [14] = test system: NCI-H1975 (Lung Adenocarcinoma)
# Summary of the method: as §1
# DK-MG (Glioblastoma) = test system: DK-MG (Glioblastoma)
# Summary of the method: as §1
SMILES,Bliss excess [1],Bliss excess [2],Bliss excess [3],Bliss excess [4],Bliss excess [5],Bliss excess (GCIY (Gastric Carcinoma)),Bliss excess (SK-MEL-24 (Melanoma)),Bliss excess [6],Bliss excess [7],Bliss excess [8],Bliss excess [9],Bliss excess [10],Bliss excess [11],Bliss excess [12],Bliss excess [13],Bliss excess [14],Bliss excess (DK-MG (Glioblastoma))
"C=CCn1c(=O)c2cnc(Nc3ccc(N4CCN(C)CC4)cc3)nc2n1-c1cccc(C(C)(C)O)n1 [AZD1775] + CCc1c2c(nc3ccc(O)cc13)-c1cc3c(c(=O)n1C2)COC(=O)[C@]3(O)CC [SN-38] (first compound max 1 µM, partner max 0.3 µM)",-0.0068,-0.0374,-0.079,0.0275,-0.0252,-0.0431,-0.103,-0.0217,-0.0478,,,,,,,,
"Cc1c2c(nn1C)CSCc1cc(n(C)n1)CSc1cc(c3ccccc3c1)OCCCc1c(C(=O)O)n(C)c3c-2c(Cl)ccc13 [AZD5991] + CS(=O)(=O)CCNCc1ccc(-c2ccc3ncnc(Nc4ccc(OCc5cccc(F)c5)c(Cl)c4)c3c2)o1 [Lapatinib] (first compound max 1 µM, 7x7, partner max 10 µM)",0.04,-0.0155,-0.0552,0.0112,0.0211,0.013,-0.0651,-0.023,0.0021,,,,,,,,
"O=C(c1cc(Cc2n[nH]c(=O)c3ccccc23)ccc1F)N1CCN(C(=O)C2CC2)CC1 [Olaparib] + CN(CC[C@H](CSC1=CC=CC=C1)NC2=C(C=C(C=C2)S(=O)(=O)NC(=O)C3=CC=C(C=C3)N4CCC(CC4)[C@H](C5=CC=CC=C5C6=CC=C(C=C6)Cl)O)S(=O)(=O)C(F)(F)F)CCO [AZD4320] (first compound max 10 µM, 7x7, partner max 1 µM)",-0.0001,-0.0436,-0.0469,0.0031,0.061,0.0025,-0.0365,-0.0497,-0.041,,,,,,,,
"CN(CCO)CC[C@H](CSc1ccccc1)Nc1ccc(S(=O)(=O)NC(=O)c2ccc(N3CCC([C@@H](O)c4ccccc4-c4ccc(Cl)cc4)CC3)cc2)cc1S(=O)(=O)C(F)(F)F [AZD4320] + CS(=O)(=O)CCNCc1ccc(-c2ccc3ncnc(Nc4ccc(OCc5cccc(F)c5)c(Cl)c4)c3c2)o1 [Lapatinib] (first compound max 1 µM, 7x7, partner max 10 µM)",0.0728,-0.0185,-0.0082,-0.0167,0.0372,0.0352,0.0316,-0.0316,0.0132,,,,,,,,
"Cc1c2c(nn1C)CSCc1cc(n(C)n1)CSc1cc(c3ccccc3c1)OCCCc1c(C(=O)O)n(C)c3c-2c(Cl)ccc13 [AZD5991] + CC(=O)O[C@H]1C(=O)[C@@]2(C)[C@H]([C@H](OC(=O)c3ccccc3)[C@]3(O)C[C@H](OC(=O)[C@H](O)[C@@H](NC(=O)c4ccccc4)c4ccccc4)C(C)=C1C3(C)C)[C@]1(OC(C)=O)CO[C@@H]1C[C@@H]2O [Paclitaxel] (first compound max 1 µM, 7x7, partner max 3 µM)",0.102,-0.0159,-0.0107,0.0286,-0.0329,-0.0262,-0.0449,-0.0144,0.0058,,,,,,,,
"CC1(C)CCC(CN2CCN(c3ccc(C(=O)NS(=O)(=O)c4ccc(NCC5CCOCC5)c([N+](=O)[O-])c4)c(Oc4cnc5[nH]ccc5c4)c3)CC2)=C(c2ccc(Cl)cc2)C1 [Venetoclax] + CS(=O)(=O)CCNCc1ccc(-c2ccc3ncnc(Nc4ccc(OCc5cccc(F)c5)c(Cl)c4)c3c2)o1 [Lapatinib] (first compound max 1 µM, 7x7, partner max 10 µM)",0.0085,-0.0116,-0.035,-0.0243,0.022,-0.0655,-0.0188,0.04,-0.06,,,,,,,,
"C[C@@H]1COCCN1c1cc(C2([S@](C)(=N)=O)CC2)nc(-c2ccnc3[nH]ccc23)n1 [AZD6738] + Nc1ccn([C@@H]2O[C@H](CO)[C@@H](O)C2(F)F)c(=O)n1 [Gemcitabine] (first compound max 10 µM, 7x7, partner max 0.3 µM)",-0.0368,0.0023,-0.0172,-0.0532,0.0099,-0.0362,0.0379,0.0542,0.0123,,,,,,,,
"C=CCn1c(=O)c2cnc(Nc3ccc(N4CCN(C)CC4)cc3)nc2n1-c1cccc(C(C)(C)O)n1 [AZD1775] + Nc1ccn([C@@H]2O[C@H](CO)[C@@H](O)C2(F)F)c(=O)n1 [Gemcitabine] (first compound max 1 µM, partner max 0.3 µM)",-0.0105,0.0179,-0.0681,0.045,0.0191,0.0465,0.0069,-0.0038,0.0248,,,,,,,,
"Cc1nc(-c2cn3c(n2)-c2ccc(-c4cnn(C(C)(C)C(N)=O)c4)cc2OCC3)n(C(C)C)n1 [Taselisib] + O=C(Nc1ccc2[nH]nc(-c3ccncc3)c2c1)[C@@H]1CCN(CC(=O)N2CCN(c3ccc(-c4ncccn4)cc3)CC2)C1 [SCH772984] (first compound max 10 µM, 7x7, partner max 5 µM)",0.138,0.0108,0.0487,0.0385,0.139,-0.0131,0.0017,0.115,-0.0437,,,,,,,,
"Cc1c2c(nn1C)CSCc1cc(n(C)n1)CSc1cc(c3ccccc3c1)OCCCc1c(C(=O)O)n(C)c3c-2c(Cl)ccc13 [AZD5991] + Nc1ccn([C@@H]2O[C@H](CO)[C@@H](O)C2(F)F)c(=O)n1 [Gemcitabine] (first compound max 1 µM, 7x7, partner max 0.3 µM)",0.0148,-0.009,-0.0373,0.0571,0.033,0.0091,-0.0245,-0.0061,-0.0707,,,,,,,,
"O=C(c1cc(Cc2n[nH]c(=O)c3ccccc23)ccc1F)N1CCN(C(=O)C2CC2)CC1 [Olaparib] + Cc1c2c(nn1C)CSCc1cc(n(C)n1)CSc1cc(c3ccccc3c1)OCCCc1c(C(=O)O)n(C)c3c-2c(Cl)ccc13 [AZD5991] (first compound max 10 µM, 7x7, partner max 1 µM)",-0.0155,-0.0396,-0.0525,0.0135,0.0737,-0.041,-0.0478,-0.0083,-0.0502,,,,,,,,
"C[C@@H](Nc1cc(F)cc(F)c1)c1cc(C(=O)N(C)C)cc2c(=O)cc(N3CCOCC3)oc12 [AZD8186] + C1CN(CCC1(C(=O)N[C@@H](CCO)C2=CC=C(C=C2)Cl)N)C3=NC=NC4=C3C=CN4 [AZD5363] (first compound max 10 µM, 7x7, partner max 10 µM)",-0.0108,-0.0302,-0.0281,-0.0418,0.0374,-0.012,-0.0455,-0.0377,-0.0589,,,,,,,,
"O=C(c1cc(Cc2n[nH]c(=O)c3ccccc23)ccc1F)N1CCN(C(=O)C2CC2)CC1 [Olaparib] + COc1nnc2ccc(N3CCC(c4ccc(OCCN5CCN(C)C(=O)[C@H]5C)cc4)CC3)nn12 [AZD5153] (first compound max 10 µM, 7x7, partner max 1 µM)",-0.0024,-0.0631,-0.0686,0.0665,-0.0048,-0.0248,-0.0814,-0.0388,-0.0624,,,,,,,,
"CS(=O)(=O)CCNCc1ccc(-c2ccc3ncnc(Nc4ccc(OCc5cccc(F)c5)c(Cl)c4)c3c2)o1 [Lapatinib] + NC1(c2ccc(-c3nc4ccn5c(=O)[nH]nc5c4cc3-c3ccccc3)cc2)CCC1 [MK-2206] (first compound max 10 µM, 7x7, partner max 10 µM)",0.0563,0.0408,-0.031,0.0505,0.0584,0.0484,-0.0572,0.0349,0.0246,-0.0051,,,,,,,
"CCc1c2c(nc3ccc(O)cc13)-c1cc3c(c(=O)n1C2)COC(=O)[C@]3(O)CC [SN-38] + O=C(c1cc(Cc2n[nH]c(=O)c3ccccc23)ccc1F)N1CCN(C(=O)C2CC2)CC1 [Olaparib] (first compound max 0.3 µM, 7x7, partner max 10 µM)",0.0367,0.0497,-0.0113,0.0478,0.0369,0.0875,0.0007,0.0133,0.0986,,-0.0168,0.0669,0.0726,0.0064,0.0465,0.0248,0.0193
"C[C@@H](Nc1cc(F)cc(F)c1)c1cc(C(=O)N(C)C)cc2c(=O)cc(N3CCOCC3)oc12 [AZD8186] + CC(=O)c1c(C)c2cnc(Nc3ccc(N4CCNCC4)cn3)nc2n(C2CCCC2)c1=O [Palbociclib] (first compound max 10 µM, 7x7, partner max 10 µM)",-0.0148,-0.0035,-0.0096,0.0696,0.0867,0.0171,0.0814,0.0672,0.0108,,,,,,,,
"C[C@@H](Oc1cc(-c2cnn(C3CCNCC3)c2)cnc1N)c1c(Cl)ccc(F)c1Cl [Crizotinib] + Cn1cnc2c(F)c(Nc3ccc(Br)cc3Cl)c(C(=O)NOCCO)cc21 [Selumetinib] (first compound max 10 µM, 7x7, partner max 10 µM)",0.0011,-0.042,-0.0392,-0.0633,-0.045,-0.0266,-0.0034,-0.108,-0.0007,,,,,,,,
"CS(=O)(=O)CCNCc1ccc(-c2ccc3ncnc(Nc4ccc(OCc5cccc(F)c5)c(Cl)c4)c3c2)o1 [Lapatinib] + Cn1cnc2c(F)c(Nc3ccc(Br)cc3Cl)c(C(=O)NOCCO)cc21 [Selumetinib] (first compound max 10 µM, 7x7, partner max 10 µM)",0.0577,0.0708,-0.0514,0.0764,0.0547,-0.0067,0.0129,0.116,-0.0391,,,,,,,,

# Source: the supplement of paper PMC11061612
